We go through three substances from US20030216319A1, “Specific autoimmune reactions against isomerised/optically inverted epitopes: application for treatment of autoimmune diseases” (priority 2000, published 2003).

The test system of one assay is RA autoantibodies. Description: Competition ELISA: binding of RA autoantibodies to Thy-GA-Trp-Leu-*Asx-Gly-Lys-Glu-Tyr coated plates (Example 3). Further details: species or system human. Conditions: competitor 50 μl of 50 μg/ml pre-incubated with serum 17 hours at 4° C.; 6 RA sera. The protocol: The Thy-GA-Trp-Leu-*Asx-Gly-Lys-Glu-Tyr conjugate was dissolved in PBS to a final concentration of 10 μg/ml, and 100 μL of this solution is pipetted into the wells of a micro-titre-plate (MTP, flat-well polysorb, Nunc). the plate was blocked as described (Bonde et al 1994), and serum samples diluted one-hundred fold in 10 mM Na-phosphate, 140 mM NaCl, 0.1% tween-20, 1% BSA pH 7.4 (assay buffer) were added. The MTP was left for one hour ±5 minutes on a rotary shaker at 20° C. The plates were washed five times in washing buffer (25 mM tris, 140 mM NaCl, 0.1% tween-20 pH 7.4), by a manual plate washer. One-hundred μL assay buffer containing a one-thousand fold dilution of Perxidase conjugated rabbit anti human λ-chains (Dako 063) and κ-chains (Dako 013) was added into each well. The MTP was again incubated for one hour ±5 minutes on a rotary mixer at 20° C. After 5 times washing, 100 μl of peroxidase substrate was added (3,3′,5,5′ tetramethylbenzidine dihydrochloride (TMB), Kirkegaard & Perry Laboratories, USA) and incubated for 15±2 minutes at room temperature (18-22° C.) in the dark. After addition of 0.18 M H2SO4, the absorbency was measured at 450 nm.
The experiment was carried out as follows. Serum samples were diluted one-hundred fold in 10 mM Na-phosphate, 140 mM NaCl, 0.1% tween-20, 1% BSA pH 7.4 (assay buffer). Two-hundred μl was added to 1.5 ml polypropylene tubes followed by addition of 50 μl of the following reagents dissolved in assay buffer at a concentration of 50 μg/ml:
The tubes were placed at 4° C. for 17 hours, and one-hundred μl of the mixture was added into MTP coated with Thy-GA-Trp-Leu-*Asx-Gly-Lys-Glu-Tyr conjugate. The assay was performed as described above under example 2.

The test system of assay [1] is auto-antibodies reactive with isomerised IgG Fc Asn-315 derived peptides. As to the kind of experiment: Homogeneous RIA with 125I Thy-GA-Trp-Leu-*Asx-Gly-Lys-Glu-Tyr tracer, competition with peptides (Example 4). Type of assay: binding, human. Conditions: highest concentration (10,000 ng/ml); P-0.01 by Student's T-Test. The protocol: A homogeneous RIA assay was developed for measurement of auto-antibodies with reactivity towards the isomerised form of the epitope Trp-Leu-Asn-Gly-Lys-Glu-Tyr derived from the IgG CH2 region. The assay was performed by incubating serum samples with ^125I Thy-GA-Trp-Leu-*Asx-Gly-Lys-Glu-Tyr overnight followed by precipitation of immune-complexes with protein A Sepharose.
Serum samples are diluted 1:200 in IMP buffer (IMP-buffer: 10 mm Na-Phosphate, pH 7.4, 140 mM NaCl, 5 mM EDTA, 0.5% Triton X-100, 0.1% BSA, 10 μg/ml soy-bean trypsin inhibitor). A Thy-GA-Trp-Leu-*Asx-Gly-Lys-Glu-Tyr conjugate is prepared as described in example 2 and iodinated with ^125I using the chloramine T protocol: 100 μg of the conjugate is diluted in 0.25 M Na2HPO4 to a total volume of 140 μl. 1.5 mCi Na^125I is added followed by 10 μL Chloramin-T (1 mg/ml, prepared freshly). The solution is vortexed for 30 seconds and 150 μL methionine (1 mg/ml) is added and immediately vortexed for 120 sec. The tracer is purified on size exclusion column (type: BIOSEP SEC S-2000, size: 300×7.80 mm) equilibrated with PBS containing 1% BSA Plow rate 1.0 ml/min. 500 μl fractions are collected and analysed in a scintillation counter (γ-counter). The fractions containing the tracer are pooled and used in the homogeneous RIA assay format. […]

The next assay concerns human immunoglobulin. As to the kind of experiment: Homogeneous RIA with 125I-BSA-BS3-Pro-Ser-Glu-γ-Gly-Lys-Gly-Arg-Gly in MS and control sera (Example 9). It is filed as binding. An excerpt:
For this purpose the MBP derived octapeptide Pro-Ser-Glu-γ-Gly-Lys-Gly-Arg-Gly (γL) was manufactured synthetically using standard FMOC chemistry. The peptide was conjugated to bovine serum albumin (BSA) by Bis[sulfosuccinimidyl]suberate (BS^3) according to the manufacturers instructions (Pierce) and iodinated with ^125I using the chloramine T protocol as described in Example 4.
Serum from 9 MS-patients and 8 healthy persons are reacted overnight with ^125I-BSA-BS^3-Pro-Ser-Glu-γ-Gly-Lys-Gly-Arg-Gly followed by precipitation of immune complexes with protein A Sepharose. Serum samples are diluted 1:200 in IMP buffer. The ^125I BSA-BS^3-Pro-Ser-Glu-γ-Gly-Lys-Gly-Arg-Gly tracer is diluted in IMP buffer (to an activity of 100000 CPM/25 μl). Seventy-five μl of diluted serum sample is mixed with 25 μl tracer and 25 μl of either IMP buffer or free (unconjugated/unlabelled) Pro-Ser-Glu-γ-Gly-Lys-Gly-Arg-Gly peptide (in a concentration of […] in IMP buffer) is added to this mixture. This mixture is incubated overnight at 4° C. Protein. A Sepharose (PAS) 20 μl/sample vial is weighed out and washed 3 times with 10 ml IMP washing buffer, and transferred to eppendorf 1.5 ml tubes using a repeater pipette. The PAS is sedimented by centrifugation at 2000 RPM 2 min., and the supernatant is aspirated using a suction device (or a pipette). […]

Assay [2] relates to immunoaffinity purified RA auto-antibodies. Description: Immuno-blotting of cellulose-bound spot peptides with immunoaffinity purified RA auto-antibodies (Example 5). It is filed as binding, human. Conditions: IgM RF eluate 1 μg/mL. On the procedure:
1. IgG is coupled to CNBr activated Sepharose using the manufacturers instructions (Pharmacia, Upsala, Sweden).
2. The IgG Sepharose is packed in a suitable column (i.e. a disposable DG10 column, BioRad laboratories, Richmond, Calif.). The column is washed with at least 10 column volumes PBS and with 10 column volumes 0.1 M sodium acetate, 0.15 M sodium chloride pH 3.5 and finally equilibrated in PBS.
3. Serum from RA patients is diluted 10 times in PBS and loaded on the column. The column is washed with PBS until the absorbency (OD 280 nm) reaches base-line.
4. Bound RF's are eluted with 0.1 M sodium acetate, 0.15 M sodium chloride pH 3.5.
5. IgM is separated from IgG and IgA by gel-filtration on a Sephadex G-200 column in 0.1 M sodium acetate, 0.15 M sodium chloride pH 3.5.
6. Eluted IgM is diluted in PBS-BT to 1 μg/mL and assayed as described below.
Seven amino-acid peptides extending over the Asn-315 residue were synthesised by spot synthesis using Whatman 540 paper (Maidstone, U.K.), using the previously described procedures (Frank, 1992, Kramer et al 1994). The peptides were automatically prepared using a spot synthesis method (Abimed, Langenfeld, FRG). The following peptides were synthesised, covalently attached via the carboxy-terminus:
The cellulose membrane containing these peptides was incubated with the immunoaffinity purified RA auto-antibodies purified as described above. […]

In the case of Trp-Leu-Asp-β-Gly-Lys-Glu-Tyr, the “competition of binding of RA autoantibodies to Thy-GA-Trp-Leu-*Asx-Gly-Lys-Glu-Tyr coated plates” value in the assay on RA autoantibodies is “able to compete out the binding”. Moreover, the “reactivity in competition RIA (percent inhibition by competing peptide), group basis” value in assay [1] is reported as “significant reactivity”. Consider Pro-Ser-Glu-γ-Gly-Lys-Gly-Arg-Gly, for which, in the assay on human immunoglobulin (25 μl free peptide, 10 μl/mL in IMP buffer), the “inhibition of binding of tracer conjugate to human immunoglobulin by free peptide” value was “could be specifically inhibited”. Further, the “% inhibition of immunoglobulin binding by free peptide, MS sera compared to control sera” value with human immunoglobulin (p=0.008, two-tailed non-parametric t-test) was “significantly higher”.

“His-Gln-Asp-Trp-Leu-Asp-β-Gly... [peptide IV]”: the “reactivity of purified RA auto-antibodies towards cellulose-bound peptide” value in assay [2] is recorded as “strong reactivity”.
